From US20260317324A1, “BIFUNCTIONAL COMPOUNDS FOR DEGRADING BRAF VIA UBIQUITIN PROTEOSOME PATHWAY” (Nurix Therapeutics, Inc., priority 2023, published 2026)

Biological target: T1, BRAF V600E (Homo sapiens, UniProt P15056, V600E)
T1 construct: endogenous C-terminal HiBiT fusion tag on BRAF V600E allele; endogenous in cells; host or cells: A375 clone 1F10 (CRISPR-Cas9 knock-in of the HiBiT tag; parental A375 from ATCC)
Assay: BRAF HiBiT degradation assay, C-terminal HiBiT-tagged BRAF V600E A375 cells (clone 1F10), Nano-Glo HiBiT Lytic assay
Format: cell-based
Details: for Dmax: A-375
Method in brief: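 Degradation is measured as loss of HiBiT signal from BRAF V600E tagged at its native locus in A375 cells. Doses span 1 μM to 0.01 nM in half-log steps, in duplicate. Percent remaining is calculated against DMSO controls after subtracting untagged A375 background, and curve fitting yields DC50 and observed Dmax.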

[1] = A375 (BRAF V600E), DC50 at 50%: fitted conc. at Y=50
[2] = A375 (BRAF V600E), percentage protein degraded at maximal compound effect relative to DMSO
[3] = A375 (BRAF V600E, Class 1), DC50 at 50% degradation
[4] = A375 (BRAF V600E, Class 1), observed Dmax, % protein degraded relative to DMSO control

T1 sequence (P15056 whole entry V600E, the tested form may be a part): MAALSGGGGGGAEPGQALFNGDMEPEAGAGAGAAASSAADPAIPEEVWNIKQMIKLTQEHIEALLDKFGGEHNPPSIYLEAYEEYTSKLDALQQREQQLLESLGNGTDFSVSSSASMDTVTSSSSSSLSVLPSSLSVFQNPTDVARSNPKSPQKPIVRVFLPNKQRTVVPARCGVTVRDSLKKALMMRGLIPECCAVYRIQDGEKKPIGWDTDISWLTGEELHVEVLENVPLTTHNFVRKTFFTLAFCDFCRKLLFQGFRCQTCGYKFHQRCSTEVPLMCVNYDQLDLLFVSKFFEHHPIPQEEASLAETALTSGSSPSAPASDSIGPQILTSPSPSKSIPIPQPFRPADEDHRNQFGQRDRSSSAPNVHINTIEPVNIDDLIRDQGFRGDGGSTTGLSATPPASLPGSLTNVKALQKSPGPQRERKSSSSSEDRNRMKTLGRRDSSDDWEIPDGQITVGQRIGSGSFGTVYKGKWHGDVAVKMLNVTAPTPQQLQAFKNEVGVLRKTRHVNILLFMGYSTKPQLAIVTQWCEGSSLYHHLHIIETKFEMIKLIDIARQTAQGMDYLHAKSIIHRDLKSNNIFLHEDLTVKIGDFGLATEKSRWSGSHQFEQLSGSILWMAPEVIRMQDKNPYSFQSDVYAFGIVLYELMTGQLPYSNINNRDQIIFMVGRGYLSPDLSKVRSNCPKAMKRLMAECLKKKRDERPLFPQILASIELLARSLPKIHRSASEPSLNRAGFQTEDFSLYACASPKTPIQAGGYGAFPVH

Structure (SMILES)	DC50 [1]	Dmax [2]	DC50 [3]	Dmax [4]
CCCS(=O)(=O)Nc1cccc(-c2nc(C3CCC4(CC3)CCN(C(=O)CN3CCN(c5ccc6c(c5)C(=O)N(C5CCC(=O)NC5=O)C6=O)CC3)CC4)sc2-c2ccnc(N)n2)c1F (racemic) [Compound 231, Rac-N-{3-[5-(2-aminopyrimidin-4-yl)-2-{3-[2-(4-{2-[(3R)-2,6-dioxopiperidin-3-yl]-1,3-dioxo-2,3-dihydro-1H-isoindol-5-yl}piperazin-1-yl)acetyl]-3-azaspiro[5.5]undecan-9-yl}-1,3-thiazol-4-yl]-2-fluorophenyl}propane-1-sulfonamide]	< 10 nM	30 to 70%		
CCCS(=O)(=O)Nc1cccc(-c2nc(C3(C)CCN(C(=O)CN4CCN(c5ccc6c(c5)C(=O)N(C5CCC(=O)NC5=O)C6=O)CC4)CC3)sc2-c2ccnc(N)n2)c1F (racemic) [Compound 232, Rac-N-{3-[5-(2-aminopyrimidin-4-yl)-2-{1-[2-(4-{2-[(3R)-2,6-dioxopiperidin-3-yl]-1,3-dioxo-2,3-dihydro-1H-isoindol-5-yl}piperazin-1-yl)acetyl]-4-methylpiperidin-4-yl}-1,3-thiazol-4-yl]-2-fluorophenyl}propane-1-sulfonamide]	50 to 500 nM	30 to 70%		
CCCS(=O)(=O)Nc1cccc(-c2nc(C(C)(C)C3CCN(C(=O)CN4CCC5(CC4)CN(c4ccc6c(c4)C(=O)N(C4CCC(=O)NC4=O)C6=O)C5)CC3)sc2-c2ccnc(N)n2)c1F (racemic) [Compound 240, Rac-N-{3-[5-(2-aminopyrimidin-4-yl)-2-(2-{1-[2-(2-{2-[(3R)-2,6-dioxopiperidin-3-yl]-1,3-dioxo-2,3-dihydro-1H-isoindol-5-yl}-2,7-diazaspiro[3.5]nonan-7-yl)acetyl]piperidin-4-yl}propan-2-yl)-1,3-thiazol-4-yl]-2-fluorophenyl}propane-1-sulfonamide]	> 500 nM	30 to 70%		
CCCS(=O)(=O)Nc1cccc(-c2nc(C3CCC4(CC3)CN(C(=O)C3CN(C5CCN(c6ccc7c(c6)C(=O)N(C6CCC(=O)NC6=O)C7=O)CC5)C3)C4)sc2-c2ccnc(N)n2)c1F (racemic) [Compound 241, Rac-N-{3-[5-(2-aminopyrimidin-4-yl)-2-{2-[1-(1-{2-[(3R)-2,6-dioxopiperidin-3-yl]-1,3-dioxo-2,3-dihydro-1H-isoindol-5-yl}piperidin-4-yl)azetidine-3-carbonyl]-2-azaspiro[3.5]nonan-7-yl}-1,3-thiazol-4-yl]-2-fluorophenyl}propane-1-sulfonamide]	< 10 nM	> 70%		
CCCS(=O)(=O)Nc1cccc(-c2nc(C3CCN(C(=O)C4CN(C5CCN(c6ccc7c(c6)C(=O)N(C6CCC(=O)NC6=O)C7=O)CC5)C4)CC3)sc2-c2ccnc(N)n2)c1F (racemic) [Compound 242, Rac-N-{3-[5-(2-aminopyrimidin-4-yl)-2-{1-[1-(1-{2-[(3R)-2,6-dioxopiperidin-3-yl]-1,3-dioxo-2,3-dihydro-1H-isoindol-5-yl}piperidin-4-yl)azetidine-3-carbonyl]piperidin-4-yl}-1,3-thiazol-4-yl]-2-fluorophenyl}propane-1-sulfonamide]	< 10 nM	> 70%		
CCCS(=O)(=O)Nc1cccc(-c2nc(C3CCC4(CC3)CCN(C(=O)CC3CCN(C5CCN(c6ccc7c(c6)C(=O)N(C6CCC(=O)NC6=O)C7=O)CC5)CC3)CC4)sc2-c2ccnc(N)n2)c1F (racemic) [Compound 248, Rac-N-{3-[5-(2-aminopyrimidin-4-yl)-2-{3-[2-(1′-{2-[(3R)-2,6-dioxopiperidin-3-yl]-1,3-dioxo-2,3-dihydro-1H-isoindol-5-yl}-[1,4′-bipiperidin]-4-yl)acetyl]-3-azaspiro[5.5]undecan-9-yl}-1,3-thiazol-4-yl]-2-fluorophenyl}propane-1-sulfonamide]			< 10 nM	> 70%
CCCS(=O)(=O)Nc1cccc(-c2nc(C3(C)CCN(C(=O)CC4CCN(C5CCN(c6ccc7c(c6)C(=O)N(C6CCC(=O)NC6=O)C7=O)CC5)CC4)CC3)sc2-c2ccnc(N)n2)c1F (racemic) [Compound 249, Rac-N-{3-[5-(2-aminopyrimidin-4-yl)-2-{1-[2-(1′-{2-[(3R)-2,6-dioxopiperidin-3-yl]-1,3-dioxo-2,3-dihydro-1H-isoindol-5-yl}-[1,4′-bipiperidin]-4-yl)acetyl]-4-methylpiperidin-4-yl}-1,3-thiazol-4-yl]-2-fluorophenyl}propane-1-sulfonamide]			50 to 500 nM	30 to 70%
CCCS(=O)(=O)Nc1cccc(-c2nc(C3CCC4(CC3)CCN(CC3CCN(c5ccc(C6CCC(=O)NC6=O)cc5)CC3)CC4)sc2-c2ccnc(N)n2)c1F (racemic) [Compound 256, Rac-N-{3-[5-(2-aminopyrimidin-4-yl)-2-{3-[(1-{4-[(3R)-2,6-dioxopiperidin-3-yl]phenyl}piperidin-4-yl)methyl]-3-azaspiro[5.5]undecan-9-yl}-1,3-thiazol-4-yl]-2-fluorophenyl}propane-1-sulfonamide]			50 to 500 nM	30 to 70%
O=C1CCC(c2ccc(N3CCC(CN4CCN(c5ccc(-n6cc(-c7cc(F)cc(NS(=O)(=O)N8CCCC8)c7F)c(-c7ccncc7)n6)c(F)c5)CC4)CC3)nc2)C(=O)N1 (racemic) [Compound 341, Rac-N-{3-[1-(4-{4-[(1-{5-[(3R)-2,6-dioxopiperidin-3-yl]pyridin-2-yl}piperidin-4-yl)methyl]piperazin-1-yl}-2-fluorophenyl)-3-(pyridin-4-yl)-1H-pyrazol-4-yl]-2,5-difluorophenyl}pyrrolidine-1-sulfonamide]			< 10 nM	> 70%
O=C1CCC(c2ccc(N3CCC(CN4CCN(c5cnc(-n6cc(-c7cc(F)cc(NS(=O)(=O)N8CCCC8)c7F)c(-c7ccncc7)n6)nc5)CC4)CC3)nc2)C(=O)N1 (racemic) [Compound 343, Rac-N-{3-[1-(5-{4-[(1-{5-[(3R)-2,6-dioxopiperidin-3-yl]pyridin-2-yl}piperidin-4-yl)methyl]piperazin-1-yl}pyrimidin-2-yl)-3-(pyridin-4-yl)-1H-pyrazol-4-yl]-2,5-difluorophenyl}pyrrolidine-1-sulfonamide]			< 10 nM	> 70%
CCCS(=O)(=O)Nc1cccc(-c2cn(-c3ccc(N4CCN(CC5CCN(c6ccc([C@@H]7CCC(=O)NC7=O)cn6)CC5)CC4)cc3)nc2-c2ccncc2)c1F [Compound 1, N-{3-[1-(4-{4-[(1-{5-[(3S)-2,6-dioxopiperidin-3-yl]pyridin-2-yl}piperidin-4-yl)methyl]piperazin-1-yl}phenyl)-3-(pyridin-4-yl)-1H-pyrazol-4-yl]-2-fluorophenyl}propane-1-sulfonamide]	10 to 50 nM	> 70%		

Further lines, results first:

DC50 [1]	Dmax [2]	DC50 [3]	Dmax [4]	Structure (SMILES)
< 10 nM	30 to 70%			CCCS(=O)(=O)Nc1cccc(-c2nc(C3CCC4(CC3)CN(C(=O)CN3CCN(c5ccc6c(c5)C(=O)N(C5CCC(=O)NC5=O)C6=O)CC3)C4)sc2-c2ccnc(N)n2)c1F (racemic) [Compound 230, Rac-N-{3-[5-(2-aminopyrimidin-4-yl)-2-{2-[2-(4-{2-[(3R)-2,6-dioxopiperidin-3-yl]-1,3-dioxo-2,3-dihydro-1H-isoindol-5-yl}piperazin-1-yl)acetyl]-2-azaspiro[3.5]nonan-7-yl}-1,3-thiazol-4-yl]-2-fluorophenyl}propane-1-sulfonamide]
10 to 50 nM	30 to 70%			CCCS(=O)(=O)Nc1cccc(-c2nc(C3CCN(C(=O)CN4CCN(c5ccc6c(c5)C(=O)N(C5CCC(=O)NC5=O)C6=O)CC4)CC3)sc2-c2ccnc(N)n2)c1F (racemic) [Compound 233, Rac-N-{3-[5-(2-aminopyrimidin-4-yl)-2-{1-[2-(4-{2-[(3R)-2,6-dioxopiperidin-3-yl]-1,3-dioxo-2,3-dihydro-1H-isoindol-5-yl}piperazin-1-yl)acetyl]piperidin-4-yl}-1,3-thiazol-4-yl]-2-fluorophenyl}propane-1-sulfonamide]
< 10 nM	> 70%			CCCS(=O)(=O)Nc1cccc(-c2nc(C3CCC4(CC3)CN(C(=O)CN3CCC5(CC3)CN(c3ccc6c(c3)C(=O)N(C3CCC(=O)NC3=O)C6=O)C5)C4)sc2-c2ccnc(N)n2)c1F (racemic) [Compound 236, Rac-N-{3-[5-(2-aminopyrimidin-4-yl)-2-{2-[2-(2-{2-[(3R)-2,6-dioxopiperidin-3-yl]-1,3-dioxo-2,3-dihydro-1H-isoindol-5-yl}-2,7-diazaspiro[3.5]nonan-7-yl)acetyl]-2-azaspiro[3.5]nonan-7-yl}-1,3-thiazol-4-yl]-2-fluorophenyl}propane-1-sulfonamide]
< 10 nM	> 70%			CCCS(=O)(=O)Nc1cccc(-c2nc(C3CCC4(CC3)CCN(C(=O)CN3CCC5(CC3)CN(c3ccc6c(c3)C(=O)N(C3CCC(=O)NC3=O)C6=O)C5)CC4)sc2-c2ccnc(N)n2)c1F (racemic) [Compound 237, Rac-N-{3-[5-(2-aminopyrimidin-4-yl)-2-{3-[2-(2-{2-[(3R)-2,6-dioxopiperidin-3-yl]-1,3-dioxo-2,3-dihydro-1H-isoindol-5-yl}-2,7-diazaspiro[3.5]nonan-7-yl)acetyl]-3-azaspiro[5.5]undecan-9-yl}-1,3-thiazol-4-yl]-2-fluorophenyl}propane-1-sulfonamide]
< 10 nM	> 70%			CCCS(=O)(=O)Nc1cccc(-c2nc(C3CCN(C(=O)CN4CCC5(CC4)CN(c4ccc6c(c4)C(=O)N(C4CCC(=O)NC4=O)C6=O)C5)CC3)sc2-c2ccnc(N)n2)c1F (racemic) [Compound 239, Rac-N-{3-[5-(2-aminopyrimidin-4-yl)-2-{1-[2-(2-{2-[(3R)-2,6-dioxopiperidin-3-yl]-1,3-dioxo-2,3-dihydro-1H-isoindol-5-yl}-2,7-diazaspiro[3.5]nonan-7-yl)acetyl]piperidin-4-yl}-1,3-thiazol-4-yl]-2-fluorophenyl}propane-1-sulfonamide]
